Measured values taken from patent publication US20090030037A1, “Sustained Release Formulation and Dosing Schedules of Leukotriene Synthesis Inhibitor for Human Therapy” (deCODE Genetics ehf., priority 2005, published 2009).

Tests used:
Assay type in all cases: in vivo, human
[1] = test system: LTB4; assay: Exposure-response analysis: estimated reduction in stimulated LTB4 by DG-031 daily dose; conditions: for Estimated Percent LTB4 Reduction by DG-031 Daily Dose, Mean: stimulated LTB4, mean model prediction from studies DG-031-201 and DG-031-203
Protocol: Administration of DG-031 500 mg BID reduced LTB4 levels to the target 35% reduction, as measured in the ionophore-stimulation assay described in Example 1. The estimated DG-031-induced reduction in stimulated LTB4 levels was based on all the relevant data observed in the DG-031-201 and DG-031-203 studies. The control baseline was 7.8%. The data presented in Table 14 are the mean and the 5th and 95th percentiles based on the mean model prediction (the 90% confidence interval on the estimated LTB4 response).
The pharmacokinetic characteristics of the tested DG-031 formulation result in an observed mean peak concentrations of 8.8 μg/mL and mean trough concentrations of 4.3 μg/mL. (Table 18) The characteristics of the tested formulation leads to prolonged drug absorption that minimizes the peak to trough fluctuation in DG-031 plasma concentration and LTB4 response.

[2] = Effect of high fat meal on DG-031 pharmacokinetics; conditions: administration with a high fat meal
Protocol: In the context of treatment of a single individual, a steady state concentration may be expected to fluctuate from day-to-day with variations in the individual's diet, level activity, state of health, co-administration of other medications, and the like. DG-031 is preferably administered with food to improve adsorption. […] Alternatively, DG-031 is administered in the absence of food. The decision whether or not to administer with food may be based on the Cmax and Cmin observed following administration of a novel formulation where the Cmax and Cmin fall within the desired range. […] In this context, the steady state concentration for an individual refers to an average concentration taken at multiple time points, to adjust for such fluctuation.

[3] = test system: CRP; assay: Study DG-031-203: serum CRP
Protocol: The study also collected information on the dose-related effect of DG-031 on capacity for LTB4 production (ex vivo), plasma MPO, and serum-CRP. […] The pattern observed supported a concentration dependent pharmacologic effect of DG-031 on capacity for LTB4 production measured ex vivo. The effects on LTB4 production amounted to a 30% (p=0.016) and 25% (p=0.094) reduction with the 375 mg BID and 250 mg TID doses, respectively.

[4] = test system: LTB4; assay: Study DG-031-204: serum LTB4; conditions: after 4 weeks
Protocol: An additional single site, open label study was carried out to obtain biomarker and safety data on additional DG-031 doses (i.e., 1000 mg and 1500 mg). This study examined the safety, tolerability and dose-related effects of DG-031 on inflammatory biomarkers including: LTB4, hsCRP, and MPO. A total of 119 patients with a prior history of CAD and MI were randomized to receive either 1000 mg DG-031 (500 mg BID) or 1500 mg DG-031 (500 mg TID) daily for 4-6 weeks. Treatment with DG-031 in addition to the subject's standard care, medication, and treatment, was prescribed by the patient's cardiologist. A majority of the subjects received statin therapy before, during and after the study. Follow-up assessments were performed 2 weeks after the end of study drug administration.
The biomarkers were analyzed as described in Example 1. Statistical analysis of the data was carried out using a one-sample t-test on change from baseline with a two-sided nominal significance level of 0.050. […]
Serum was collected weekly for determination of LTB4 concentration in response to the treatment with DG-031. […] Stimulated LTB4 effects measured in study DG-031-204, as shown in the raw data set out in Table 12, appear consistent with projections from the exposure-response analysis based on data from studies DG-031-201 and DG-031-203. […]

O=C(O)[C@@H](c1ccc(OCc2ccc3ccccc3n2)cc1)C1CCCC1 [DG-031, (R)-(+)-alpha-cyclopentyl-4-(2-quinolinylmethoxy)-Benzeneacetic acid]
Average drug exposure ([1]; 500 mg BID (1000 mg daily)): 7.6 µg/mL
Reduction in stimulated LTB4 production ([1]; 500 mg BID, 90% prediction interval −45% to −24%): 37%
Estimated Percent LTB4 Reduction by DG-031 Daily Dose, Mean ([1]; daily dose 250): −8.7%
Estimated Percent LTB4 Reduction by DG-031 Daily Dose, Mean ([1]; daily dose 500): −19.4%
Estimated Percent LTB4 Reduction by DG-031 Daily Dose, Mean ([1]; daily dose 750): −28.8%
Estimated Percent LTB4 Reduction by DG-031 Daily Dose, Mean ([1]; daily dose 1000): −37.1%
Estimated Percent LTB4 Reduction by DG-031 Daily Dose, Mean ([1]; daily dose 1250): −44.5%
Estimated Percent LTB4 Reduction by DG-031 Daily Dose, Mean ([1]; daily dose 1500): −50.9%
half-life [2]: shorter
Reduction in CRP levels, high CRP group ([3]; 250 mg TID, CRP above median 1.4 mg/L at entry): 48%
CRP, change ([3]; 250 mg TID, Study 203, 1 wk): 37% (St. 203)
Reduction of serum CRP ([3]; 250 mg TID, after one week, follow-up study (203), all subjects): 38%
Reduction in CRP levels, high CRP group ([3]; 375 mg BID, CRP above median at entry, p=0.16): 31%
CRP, change ([3]; 375 mg BID, Study 203): No effect
Change in serum CRP ([3]; 375 mg BID, one week, all subjects): −1%
CRP, change ([3]; 375 mg QD, Study 203, 1 wk): −28%
Serum LTB4 (% change from baseline) ([4]; 1000 mg (500 mg BID)): −73%
Serum LTB4 (% change from baseline) ([4]; 1500 mg (500 mg TID)): −50%
